Measurements taken from patent US10537552B2, “Substituted 5-hydroxyoxindoles and their use as analgesics and fever reducers” (CARAFE DRUG INNOVATION, LLC, priority 2015, dated 2020).

How the values were obtained:
[1] = test system: acetic acid-induced behavioral response; test: abdominal constriction response test (acetic acid), Example 9; type: in vivo; details: B6C3F1 mice, FIG. 1; for inhibition of acetic acid-induced behavioral response: p.o. 30 min before i.p. 0.9% acetic acid, DMSO/2% methylcellulose, acetaminophen 75 to 300 mg/kg
Procedure: The example was performed to compare the antinociception (animal equivalent of analgesia) produced by the oral administration of 5-hydroxyoxindole vs acetaminophen in a standard model in mice. Male B6C3F1 mice (Taconic), 8-10 weeks of age were utilized. The mice were received at the facility at least one week prior to testing and housed in standard polycarbonate cages with filter tops. The experiments were done in accordance with the guidelines of the National Institutes of Health (NIH) and with the guidelines of the Committee for Research and Ethical Issues of the IASP (International Association for the Study of Pain) and were approved by the Institutional Animal Care and Use Committee (IACUC) of Taconic Laboratories. Four or five animals were housed per cage and food and water were provided ad libitum. Prior to initiation of the study, the mice were examined to assure adequate health and suitability. They were maintained on a 12 h/12 h light/dark cycle and room temperature was maintained between 20 and 23° C. with a relative humidity maintained between 30 and 70%. All compounds were tested in naïve animals. All compounds were administered orally 10 mL/kg, with a 30 minute pretreatment time. Each compound was dissolved in DMSO as a stock solution and mixed with methylcellulose (2%) before testing. Each compound was initially tested in five mice at a dose of 300 mg/kg in the abdominal constriction response test (Collier, British Journal of Pharmacology and Chemotherapy 32(2): 295-310, 1968). Based upon the results of the initial test, the dose-response relationship for each active compound was determined by measuring the level of analgesia produced by at least 3 escalating doses of the test compound. […] Vehicle or test compound was administered p.o. (per os) 30 min prior to an intraperitoneal (i.p.) injection of 0.9% acetic acid (10 mL/kg) and the number of responses (stretching of the hind limbs accompanied by a contraction of the abdominal muscles) to the acetic acid injection were counted over the subsequent 30 min period. […]

[2] = test system: liver (acute liver toxicity); test: liver histology (pathohistological examination); type: in vivo, C57BL/6 mice; details: mouse, in vivo
Procedure: In all experiments, mice were fasted overnight and then allocated randomly to receive either acetaminophen or equimolar dose of 5-hydroxy-7-methyloxindole by the intragastric route. Food was returned 4 h after the treatment. The two experimental groups were:
(a) Lower-dose group: Mice were administered acetaminophen (300 mg/kg) or 5-hydroxy-7-methyloxindole (324 mg/kg). After 7 h, the mice were sacrificed and liver and blood samples were taken for the analysis.
Seven hours after receiving the second injection, mice were sacrificed and liver and blood samples were taken for analysis.
A portion of the liver lobes of each mouse was fixed in 4% buffered paraformaldehyde, dehydrated in increasing concentrations of ethanol, and embedded in paraffin. Then, sections of tissue were cut to […] thickness using a rotary microtome, stained with hematoxylin and eosin, and then analyzed under a microscope.

[3] = test system: acetic acid-induced writhing responses; test: acetic acid writhing test (abdominal irritant test), Example 10; type: in vivo, C57/B16 mice; details: C57/B16 mice
Procedure: This example compares the antinociception (animal equivalent of analgesia) produced by the oral administration of 5-hydroxy-7-methyloxindole vs. acetaminophen. Initial studies were performed using 10% DMSO/Cremophor™ as the vehicle. To enable a comparison with other datasets, 5-hydroxy-7-methyloxindole was subsequently tested using 6% Tween 20® reagent as the vehicle.
Male C57/B16 mice (Taconic), 8 weeks of age, were used in this study. The mice were received at Drexel University at least one week prior to testing and housed in standard polycarbonate cages with filter tops. Experiments were done in accordance with the guidelines of the National Institutes of Health and with the guidelines of the Committee for Research and Ethical Issues of IASP and were approved by the Animal Care and Use Committee of Drexel University College of Medicine. Four to five animals were housed per cage and food and water were provided ad libitum. Prior to initiation of the study, the animals were examined to assure adequate health and suitability. Mice were maintained on a 12/12 light/dark cycle and room temperature was maintained between 20 and 23° C. with a relative humidity maintained between 30% and 70%.
Compounds were administered orally 10 mL/kg, with a 30 minute pretreatment time. All compounds were tested in naïve animals. Each compound was dissolved in DMSO as a stock solution and mixed with Cremophor™ (1:1 v/v) before testing. The mixed solutions were diluted 1:4 with sterile water (the final concentration of DMSO/Cremophor™ reagent was 10%) immediately before administration to maximize the amount of compound in solution and improve the uniformity of any compound substance remaining in suspension. It is possible that some of the drug was in suspension at the time of administration. Each compound was initially tested in 5 mice at a dose of 300 mg/kg in the writhing test to assess their ability to alleviate abdominal pain. Based on the results of the initial test, the dose-response relationship for each active compound was determined by measuring the level of analgesia produced by at least 3 escalating doses of the test compound. The measurement of inhibition of writhing for acetaminophen and 5-hydroxy-7-methyloxindole were repeated using 6% Tween® 20 reagent as the vehicle. In this case, both compounds were clearly in suspension when administered to the animals.
A modified version of the standard abdominal irritant test was used to assess analgesia. Mice were habituated for 1 h in a transparent test box (5×5×10 inches) before any injections. Vehicle or test compound was administered p.o. (per os) 30 min prior to an intraperitoneal (i.p.) injection of 0.6% acetic acid (10 mL/kg) and the number of writhing responses (stretching of the hind limbs accompanied by a contraction of the abdominal muscles) to the acetic acid injection were counted over the subsequent 30 min period. The mice from each cage were randomly assigned to the dosing groups and the mice from each group were injected in a random order.
The one-way ANOVA was used to determine significant difference from the vehicle control treated animal. Dose response data for 5-hydroxy-7-methyloxindole was fit by non-linear regression analysis to a logit model to provide an estimate of ED50.

SMILES | inhibition of acetic acid-induced behavioral response [1] | liver injury on pathohistological examination [2] | inhibition of acetic acid-induced response (writhing) ([3]; p.o. 30 min before i.p. 0.6% acetic acid, 10% DMSO/Cremophor vehicle, 30 to 300 mg/kg, FIG. 2, 3) | inhibition of acetic acid-induced response (writhing) ([3]; p.o., 6% Tween 20 vehicle (suspension), 100 and 300 mg/kg, FIG. 5, 6) | dose needed for same analgesic efficacy as acetaminophen ([1]; p.o.)
CC(=O)Nc1ccc(O)cc1 [acetaminophen, N-(4-Hydroxyphenyl)acetamide, reference compound] | robust and dose-related inhibition | acute liver injury in all of the mice | robust and dose-related inhibition | Only a 300 mg/kg dose produced significant inhibition | 
O=C1Cc2cc(O)ccc2N1 [Example 5-HI, 5-hydroxyoxindole] | statistically significant, dose-related inhibition |  |  |  | higher doses of 5-HI were required
